Here are results for 2 molecules from ChEMBL document CHEMBL3228004, “An attempt to apply lethal synthesis to the design of chemotherapeutic agents. Fluorinated 5 beta-(hydroxyethyl)-4-methylthiazoles” (J Med Chem, 1979).

In assay [1] the test system is Escherichia coli. The assay is described as follows: Antibacterial activity against Escherichia coli B. Type of assay: functional, organism-based.
Assay [2] relates to Escherichia coli. In words: Antibacterial activity against Escherichia coli AS19. In kind it is functional, organism-based.

Activity calls are given as the source filed them. The rule behind the calls is not given here.

With `Cc1nc(F)sc1CCO`, the inhibition entry in assay [1] and in assay [2] was “inactive” each time.
Regarding `OCCc1scnc1C(F)(F)F`, the inhibition entry in assay [1] and in assay [2] was “inactive” throughout.
